Experimental data published in patent US20210252159A1, “CONJUGATES OF CARTILAGE-HOMING PEPTIDES” (priority 2018, published 2021).
Like-named read-outs stand apart in the source and are kept apart here. Positions of bridges follow the written chain, without caps; N, C: chain ends. Residues, ends and D or L forms follow the SMILES beside them. *: point of attachment. X6 = C[C@@H]1C[C@H]2[C@@H]3CCC4=CC(=O)C=C[C@]4(C)[C@@]3(F)[C@@H](O)C[C@]2(C)[C@@]1(O)C(=O)COC(=O)CC1(CC(=O)*)CCCC1; X5 = C[C@@H]1C[C@H]2[C@@H]3CCC4=CC(=O)C=C[C@]4(C)[C@@]3(F)[C@@H](O)C[C@]2(C)[C@@]1(O)C(=O)COC(=O)CCCCC(=O)*

Experiments:
[1] = IL-1β challenge rat model, dose-ranging study: CBC, organ weights, tolerability; format: in vivo, rats; details: 7 hours post administration
Experimental: IL-6 was measured in knee lavage fluid using a Luminex assay and levels were normalized to total protein in the lavage fluid (FIG. 24). Assessment of the PD inflammatory marker IL-6 in the knee joints of rats challenged with IL-1β was performed. Terminal synovial fluid was collected from all animals and analyzed by Luminex 200 for IL-6 cytokine concentrations using EMD Milliplex MAP Rat Cytokine/Chemokine Magnetic Panel ([…]-65K). […] Doses are listed as nmol/kg The masses of these doses are given below in TABLE 16. Two hours and forty-five minutes (i.e., 2.75 hrs) after administration of the test agents, animals were gently heated and blood was drawn from the tail vein for CBC analysis. Animals were then anesthetized with inhaled isoflurane and injected with 30 ng of IL-1β into the right knee (except for no IL-1β group). Four hours after administration of IL-1β (seven hours after administration of test agent) the animals were euthanized. Blood was drawn for a second CBC analysis and the right knee was lavaged for detection of IL-6 in the lavage fluid using a Luminex assay. Thymus and spleen were harvested and their organ weights determined.
In the same animals for which IL-6 secretion was measured, CBC data (e.g., lymphocyte counts) were also analyzed (FIG. 25) at an early time-point, 2.75 hrs post administration of the test article (FIG. 25A), and at euthanasia 7 hrs post administration (FIG. 25B). All treatments were administered as described above for the measurement of IL-6 secretion.
All treatments and test articles were administered as described above, except for an additional treatment group that received 510 nmol/kg of the peptide-drug conjugate peptide(SEQ ID NO: 105)-DMA-dCIC.

[2] = tested on: CIA rats; format: in vivo
Experimental: Ankle diameter measurements were recorded daily starting on induction day 9 and continuing for the duration of the study. […] Each treatment was administered on the day of enrollment (study day 0) and repeated daily for 7 days (study day 6). Rats were euthanized 3 h after the final dose and blood and organs were collected for testing.

[3] = Hydrolysis assay of peptide-drug conjugates in rat plasma (free drug by LC/MS); format: in vitro ADME; details: 37° C.
Experimental: Peptide-drug conjugate peptide(SEQ ID NO: 105)-DMA-dCIC was incubated in rat plasma at 37° C. Samples were removed at regular intervals, processed by solvent extraction, and analyzed by LC/MS to quantitate free dCIC. 11 time-points were measured between 5 min and 56 hours with 3 replicates per time point. The assay was repeated two times.
In order to determine hydrolysis rates, conjugates can be diluted in PBS, rat plasma, or human plasma and incubated at 37 degrees. Samples can be taken at designated time-points (e.g., 1, 2, 3, 5, 10, 15, 20, 25, 30, 45, 60, or 90 minutes and/or hours after administration). Internal standards such as triamcinolone acetonide (TAA) can be added as an internal standard, and then active agent/TAA can be extracted using acetonitrile, for example. The samples can be dried down, reconstituted, and analyzed by LC/MS. Data can be normalized using Dex AUC/TAA AUC. Percent hydrolysis can be calculated using the average ratio for active agent AUC/TAA AUC at a time point of maximal drug release. A general method can include using a lyophilized, purified peptide-drug conjugates reconstituted in DMSO following production to generate stock solution at 20 mg/mL. Each conjugate stock can be brought to 0.25 mg/mL in each hydrolysis condition (1×DPBS, human plasma and rat plasma) in triplicate and rocked at 37° C. To quantitate free active agent, 100 μl of the hydrolyzed conjugate solution can be transferred into 1 mL acetonitrile at 4° C. at which time all plasma proteins and intact conjugates can precipitate. This can be performed repeatedly to generate a series of time points (0 hr, 0.5 hr, 1 hr, 2 hr, 4 hr, 6 hr, 8 hr, 24 hr, 32 hr). The acetonitrile solution can be spun at 17,000 g for 5 minutes, and the supernatant removed and added to a 96 well block. The pellet can then be resuspended in 500 μl acetonitrile and re-pelleted as before. The supernatant can be removed and added to the same well in the block. Samples can be prepared for analysis by drying under a nitrogen stream followed by reconstitution in 110 μl 45:55 ACN:Citrate 10 mM pH 5.5. To ensure optimal recovery the block can be shaken via plate shaker at 7,000 rpm for 5 minutes during the reconstitution step. Prior to LC/MS the samples can be transferred to a 96 well plate and centrifuged at 6,500 g for 15 minutes. Analysis can be performed on an Agilent 1260 Infinity series HPLC with inline 6120 single quad MS using acetonitrile, water (+0.1% TFA) gradient (shown below) on an InfinityLab Poroshell SB-C18 column. Quantification of free active agent (or drug) can be achieved through integration of active agent peaks of the TIC.
Lyophilized, purified peptide-drug conjugates were reconstituted in DMSO following production to generate stock solution at 20 mg/mL. Each conjugate stock was brought to 0.25 mg/mL in each hydrolysis condition (1×DPBS, human plasma and rat plasma) in triplicate and rocked at 37° C.
To quantitate free dexamethasone (Dex), 100 μl of the hydrolyzed conjugate solution was transferred into 1 mL acetonitrile at 4° C. at which time all plasma proteins and intact conjugates precipitated. This was performed repeatedly to generate a series of time points (0 hr, 0.5 hr, 1 hr, 2 hr, 4 hr, 6 hr, 8 hr, 24 hr, 32 hr). The corticosteroid triamcinolone acetonide (25 μl, 0.1 mg/mL in 45:55 ACN:Citrate 10 mM pH 5.5) was supplemented into the acetonitrile solution as an internal standard. The acetonitrile solution was spun at 17,000 g for 5 minutes, and the supernatant removed and added to a 96 well block. The pellet was resuspended in 500 μl acetonitrile and re-pelleted as before. The supernatant was removed and added to the same well in the block.
Samples were prepared for analysis by drying under a nitrogen stream followed by reconstitution in 110 μl 45:55 ACN:Citrate 10 mM pH 5.5. To ensure optimal recovery the block was shaken via plate shaker at 7,000 rpm for 5 minutes during the reconstitution step. […]

[4] = 0.05 mg/kg daily for 7 days, study day 6
[5] = in rat plasma, free Dex, read-out: Hydrolysis half-life (converted)

SMILES | spleen and thymus weights at euthanasia [1] | ankle diameter on study day 6 versus day 0, compared to vehicle ([2]; 0.05 mg/kg) | plasma lymphocyte counts as compared to vehicle [2, 4] | spleen weight as compared to vehicle [2, 4] | thymus weight as compared to vehicle [2, 4] | ankle inflammation ([2]; highest dose of 0.05 mg/kg daily for 7 days) | ankle inflammation ([2]; lower doses (0.001, 0.005, 0.01 mg/kg) daily for 7 days) | half-life at 0.25 mg/mL ([3]; Rat Plasma, release of free Dex, time points to 32 hr, read-out: Half-life (hours) as measured in the hydrolysis experiments (converted)) [h] | half-life at 0.25 mg/mL [3, 5] [h]
C[C@@H]1C[C@H]2[C@@H]3CCC4=CC(=O)C=C[C@]4(C)[C@@]3(F)[C@@H](O)C[C@]2(C)[C@@]1(O)C(=O)COP(=O)(O)O [DexSP, Dexamethasone sodium phosphate, reference compound] | reduction in the weight of both organs | statistically different than vehicle | significantly reduced | significantly reduced | significantly reduced | effective at reducing ankle inflammation | indistinguishable from vehicle | – | –
CC[C@H](C)[C@@H]1NC(=O)[C@@H]2CSSC[C@H](NC(=O)[C@H](CCCNC(=N)N)NC(=O)[C@@H](NC(=O)[C@H](CC(N)=O)NC(=O)[C@@H](NC(=O)[C@@H]3CCCN3C(=O)[C@@H](NC(=O)CNC(=O)[C@H](CO)NC(=O)CNC(=O)CCCCC(=O)OCC(=O)[C@@]3(O)[C@H](C)C[C@H]4[C@@H]5CCC6=CC(=O)C=C[C@]6(C)[C@@]5(F)[C@@H](O)C[C@@]43C)C(C)C)[C@@H](C)CC)C(C)C)C(=O)N[C@@H](CCCNC(=N)N)C(=O)NCC(=O)N[C@@H](CO)C(=O)N[C@@H](CCCNC(=N)N)C(=O)N[C@@H](CC(=O)O)C(=O)N[C@H]3CSSC[C@H](NC(=O)[C@H](CCCNC(=N)N)NC(=O)[C@H](CO)NC(=O)[C@H](CC(N)=O)NC1=O)C(=O)N[C@@H](Cc1c[nH]cn1)C(=O)N[C@H](C(=O)N[C@H](C(=O)N1CCC[C@H]1C(=O)O)[C@@H](C)O)CSSC[C@H](NC(=O)[C@@H]1CCCN1C(=O)[C@H](CC(=O)O)NC(=O)[C@H](CC(C)C)NC3=O)C(=O)N[C@@H](CCCNC(=N)N)C(=O)N[C@@H](CCCNC(=N)N)C(=O)N[C@@H](C)C(=O)NCC(=O)N[C@@H](CCSC)C(=O)N[C@@H](CCCNC(=N)N)C(=O)N[C@@H](Cc1ccccc1)C(=O)NCC(=O)N[C@@H](CCCNC(=N)N)C(=O)N2 [Compound 24, Peptide(SEQ ID NO: 105)-adipic acid-Dex] (X5-GSGVPINVRCRGSRDCLDPCRRAGMRFGRCINSRCHCTP-OH; disulfide 10-30, 16-35, 20-37 (inferred); C-terminus assumed) | – | – | – | – | – | – | – | 2.8 | 2.6
CC[C@H](C)[C@@H]1NC(=O)[C@@H]2CSSC[C@H](NC(=O)[C@H](CCCNC(=N)N)NC(=O)[C@@H](NC(=O)[C@H](CC(N)=O)NC(=O)[C@@H](NC(=O)[C@@H]3CCCN3C(=O)[C@@H](NC(=O)CNC(=O)[C@H](CO)NC(=O)CNC(=O)CC3(CC(=O)OCC(=O)[C@@]4(O)[C@H](C)C[C@H]5[C@@H]6CCC7=CC(=O)C=C[C@]7(C)[C@@]6(F)[C@@H](O)C[C@@]54C)CCCC3)C(C)C)[C@@H](C)CC)C(C)C)C(=O)N[C@@H](CCCNC(=N)N)C(=O)NCC(=O)N[C@@H](CO)C(=O)N[C@@H](CCCNC(=N)N)C(=O)N[C@@H](CC(=O)O)C(=O)N[C@H]3CSSC[C@H](NC(=O)[C@H](CCCNC(=N)N)NC(=O)[C@H](CO)NC(=O)[C@H](CC(N)=O)NC1=O)C(=O)N[C@@H](Cc1c[nH]cn1)C(=O)N[C@H](C(=O)N[C@H](C(=O)N1CCC[C@H]1C(=O)O)[C@@H](C)O)CSSC[C@H](NC(=O)[C@@H]1CCCN1C(=O)[C@H](CC(=O)O)NC(=O)[C@H](CC(C)C)NC3=O)C(=O)N[C@@H](CCCNC(=N)N)C(=O)N[C@@H](CCCNC(=N)N)C(=O)N[C@@H](C)C(=O)NCC(=O)N[C@@H](CCSC)C(=O)N[C@@H](CCCNC(=N)N)C(=O)N[C@@H](Cc1ccccc1)C(=O)NCC(=O)N[C@@H](CCCNC(=N)N)C(=O)N2 [Compound 26, Peptide(SEQ ID NO: 105)-3,3,-tetramethylene-glutaric acid-Dex] (X6-GSGVPINVRCRGSRDCLDPCRRAGMRFGRCINSRCHCTP-OH; disulfide 10-30, 16-35, 20-37 (inferred); C-terminus assumed) | – | – | – | – | – | – | – | – | 1.1
